In patent publication US20220315631A1, “STAPLED BETA-CATENIN LIGANDS” (Ohio State Innovation Foundation, priority 2019, published 2022):
Values belong to the molecule of their own block, whether it stands above or below them. Starred links: 1 amine or outer side, 2 acyl side, 3 side chain; linkers in the order of their positions; H or OH if unused. Positions of bridges follow the written chain, without caps; N, C: chain ends. Residues, ends and D or L forms follow the SMILES beside them. *: point of attachment. 5FAM = O=C1OC2(c3ccc(O)cc3Oc3cc(O)ccc32)c2ccc(C(=O)*)cc21; mXylylene = c1cc(C[*:1])cc(C[*:2])c1

Key:
[1] = biological target: T1, β-catenin (Homo sapiens, UniProt P35222); test: FP-based competition assay for binding to β-catenin; details: IC50; competition with FAM-labeled peptide 1 (10 nM), 50 nM GST-β-catenin; read-out: KD or IC50
T1 construct: cells harboring plasmid pGEX-β-catenin(133-665)52 were grown in LB medium; made in house; host or cells: E. coli BL21 (DE3)
T1 sequence (P35222 133-665): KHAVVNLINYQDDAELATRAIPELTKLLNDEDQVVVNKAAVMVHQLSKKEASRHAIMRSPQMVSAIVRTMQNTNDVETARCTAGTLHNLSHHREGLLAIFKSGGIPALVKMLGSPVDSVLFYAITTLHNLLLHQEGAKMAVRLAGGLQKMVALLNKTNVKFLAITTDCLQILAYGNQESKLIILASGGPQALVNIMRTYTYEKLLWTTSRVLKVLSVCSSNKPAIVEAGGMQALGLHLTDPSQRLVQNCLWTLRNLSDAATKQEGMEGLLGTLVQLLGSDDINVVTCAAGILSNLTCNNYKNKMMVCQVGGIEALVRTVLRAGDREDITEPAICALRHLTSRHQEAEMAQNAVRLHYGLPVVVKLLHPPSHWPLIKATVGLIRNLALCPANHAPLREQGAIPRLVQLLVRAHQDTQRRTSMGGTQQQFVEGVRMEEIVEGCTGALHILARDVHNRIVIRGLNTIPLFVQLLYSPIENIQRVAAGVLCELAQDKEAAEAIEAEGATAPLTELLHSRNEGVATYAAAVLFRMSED
Method: Samples were transferred into black-on-black 384-well non-binding microplates (Greiner) and FP was measured using a Tecan M1000 Infinite plate reader. The data were analyzed using GraphPad Prism v. 8.0 and normalized to FP values corresponding to fully bound/unbound probe. All binding values reported are the mean±SD of independent experiments.
Protein Purification. […] Cells were harvested by centrifugation and lysed in lysis buffer (20 mM Tris, pH 8.0, 150 mM NaCl, 2 mM DTT, 1% Triton-X100, 200 mM EDTA, 10 mg/mL PMSF, and 0.2 mg/mL lysozyme) on ice for 20 min, followed by sonication (8 s off, 2 s on, 1 min total, performed twice at 70% amplitude). The homogenate was centrifuged (13,000 g for 30 min at 4° C. and the clear supernatant was loaded onto an equilibrated glutathione-agarose column. After exhaustive washing with wash buffer (20 mM Tris, pH 7.4, 150 mM NaCl, 2 mM DTT), the bound GST-β-catenin was eluted with wash buffer supplemented with 10 mM glutathione, concentrated, and stored at −80° C. in 30% glycerol.

[2] = Human serum stability; assay type: in vitro ADME; details: human, human serum diluted 1:4 in DPBS, human serum; read-out: serum t1/2 (converted)
Method: Human Serum Stability. […] After protein precipitation was complete, each aliquot was centrifuged (15000 g, 5 min, 4° C.) and analyzed by RP-HPLC. The percentage of remaining peptide at a given time point was determined by integrating the peak area and compared it to that of the untreated control (100%).

[3] = biological target: T1, β-catenin; test: FP direct binding of FAM-labeled peptide 1 to GST-β-catenin; details: 10 nM peptide 1 with serial dilutions of GST-β-catenin, read-out: KD or IC50
Method: Protein-Ligand Binding Assays. Peptide 1: Binding affinity was determined using FP. Peptide 1 (10 nM) was added to serial dilutions of GST-β-catenin in 20 mM Tris, 300 mM NaCl, pH 8.8, 0.01% Triton-X100 as reported previously. 34 After 1 h, aliquots were transferred from the reaction mixtures into black-on-black 384-well non-binding plates (Greiner) and FP was measured using a Tecan Infinite M1000 Pro plate reader. The KD value was calculated using KaleidaGraph v. 3.6 using the equation below.
Protein Purification. For β-catenin, E. coli BL21 (DE3) cells harboring plasmid pGEX-β-catenin(133-665)52 were grown in LB medium supplemented with 50 mg/L ampicillin at 37° C. to an OD600 of 0.6 before induction with 0.2 mM IPTG overnight at 30° C. Cells were harvested by centrifugation and lysed in lysis buffer (20 mM Tris, pH 8.0, 150 mM NaCl, 2 mM DTT, 1% Triton-X100, 200 mM EDTA, 10 mg/mL PMSF, and 0.2 mg/mL lysozyme) on ice for 20 min, followed by sonication (8 s off, 2 s on, 1 min total, performed twice at 70% amplitude). The homogenate was centrifuged (13,000 g for 30 min at 4° C. and the clear supernatant was loaded onto an equilibrated glutathione-agarose column. After exhaustive washing with wash buffer (20 mM Tris, pH 7.4, 150 mM NaCl, 2 mM DTT), the bound GST-β-catenin was eluted with wash buffer supplemented with 10 mM glutathione, concentrated, and stored at −80° C. in 30% glycerol.

[4] = biological target: T2, GST-β-catenin, P35222; test: fluorescence polarization; 10 nM FAM-peptide 1 against serial dilutions of GST-β-catenin
T2 chain: T1 sequence (P35222 133-665)

IC50 [1]: 305 ± 19 nM
half-life at 100 μM [2]: ~12 h
Molecule: CC[C@H](C)[C@@H]1NC(=O)[C@@H](NC(=O)[C@H](CCC(=O)O)NC(=O)[C@@H]2CCCN2C(=O)[C@H](Cc2ccc(O)cc2)NC(=O)CNC(=O)CNC(C)=O)CC(=O)NCCCC[C@@H](C(=O)N[C@@H](Cc2c[nH]cn2)C(=O)N[C@@H](CC(C)C)C(=O)N[C@@H](CCC(N)=O)C(=O)N[C@@H](CCCNC(=N)N)C(=O)N[C@H](C(=O)N[C@H](C(=O)N[C@@H](CC(C)C)C(=O)NCCC(N)=O)[C@@H](C)CC)C(C)(C)C)NC(=O)[C@H](CC(=O)O)NC(=O)[C@H](CC(C)C)NC1=O [Peptide 9, Ac-GGYPEDILDKHLQRZIL(β-Ala)-NH2]

Kd [3]: 18 nM
Molecule: CC[C@H](C)[C@@H]1NC(=O)[C@@H](NC(=O)[C@H](CCC(=O)O)NC(=O)[C@@H]2CCCN2C(=O)[C@H](Cc2ccc(O)cc2)NC(=O)CNC(=O)CNC(=O)c2ccc3c(c2)C(=O)OC32c3ccc(O)cc3Oc3cc(O)ccc32)CSCc2cccc(c2)CSC[C@@H](C(=O)N[C@@H](Cc2c[nH]cn2)C(=O)N[C@@H](CC(C)C)C(=O)N[C@@H](CCC(N)=O)C(=O)N[C@@H](CCCNC(=N)N)C(=O)N[C@H](C(=O)N[C@H](C(=O)N[C@@H](CC(C)C)C(N)=O)[C@@H](C)CC)C(C)C)NC(=O)[C@H](CC(=O)O)NC(=O)[C@H](CC(C)C)NC1=O [peptide 1] (5FAM-GGYPECILDCHLQRVIL-NH2; linker 6-10 via mXylylene)

Kd [4]: 18 nM
Molecule: GGYPECILDCHLQRVIL (modifications not checked) [peptide 1]
